Like-named read-outs stand apart in the source and are kept apart here.
How the values were obtained:
Aurora B = Aurora B (Homo sapiens, UniProt Q96GD4); assay: Aurora B inhibition in cells: Histone H3 Ser10 phosphorylation by western blotting and immunofluorescence; assay type: cell-based; parameters: endogenous in cells; host or cells: U2OS (human osteosarcoma); HeLa also used for the maleate salts; key to Aurora B inhibition: +++: very efficient inhibition; −: no inhibition; conditions: for Aurora B kinase inhibition of maleate salts (in words): U2OS and HeLa cells, 1 μM overnight with Nocodazole, immunoblotting (FIG. 11); for Aurora B inhibition: cells, Histone H3 Ser10 phosphorylation, western blotting and immunofluorescence, compounds 1 μM
Method: Actin is used as control of quantity. Cells were incubated overnight in the presence of either C1, or C2 or CH21 or C14 or DMSO(C: control). All compounds were tested at 1 μM. Proteins were detected by western blotting.
Cells were incubated with the different molecules and Aurora B inhibition is estimated by western blotting (WB) and immuno fluorescent experiments. Histone H3 phosphorylated on Ser10 is used as a marker of Aurora B kinase activity and actin as an internal control. Each WB signal is compared to the control in the absence of compound. The efficiency estimated by WB is indicated by +++: very efficient inhibition to −: no inhibition. Immunofluorescent labelling of a mitotic cell by Histone H3 illustrates Aurora B kinase activity. However immunofluorescence is less sensitive than WB. Active molecules are underlined by a square and the intensity of the line indicates the efficiency of inhibition.
FIG. 10A: Immunofluorescence with phospho-Ser10-Histone H3 antibodies. Either the percentage of positive phospho-Ser10-Histone H3 is indicated or a representative mitosis shown. […] Immunofluorescent assays were realized with a specific phospho-antibody and mitotic U2OS cells are recognized by their DNA content stained with Hoechst. On the right, a representative cell or the percentage of H3-S10-P labelled mitosis.
FIG. 10B: Immunoblotting analysis of histone H3 phosphorylation. U2OS cells were incubated overnight with Nocodazole (50 nM) in the presence of either DMSO (Co) or Compounds (1 μM). Cells were then collected and lyzed. Identical amounts of the lyzed cell samples were run on 18% acrylamide gel containing SDS.
FIGS. 11B and 11C: Immunoblotting analysis of histone H3 phosphorylation. U2OS and HeLa cells were incubated overnight with Nocodazole (50 nM) in the presence of either DMSO (Co) or Compounds (1 μM). Cells were then collected and lyzed. Identical amounts of the lyzed cell samples were run on 18% acrylamide gel containing SDS.
Cells were incubated with the different molecules and Aurora B inhibition is estimated by western blotting and immunofluorescent experiments. Histone H3 phosphorylated on Ser10 is used as a marker of Aurora B kinase activity and actin as an internal control. Results are represented in FIGS. 4 and 10 and Table 3.
(§1) Cells were treated by compounds, harvested and lyzed in 9M urea then supplemented with Laemmli sample buffer. Cell extracts were subjected to SDS-PAGE and transferred to nitrocellulose filter (GE Healthcare). After blocking with 5% non-fat milk in PBS for at least 1 hour, the membranes were incubated with the primary antibodies. The following antibodies were used: phospho-Histone H3 Ser10 (1:2000, Upstate Biotechnology), anti LAST1 (Cell signalling), anti Aurora B (epitomics) and anti alpha-tubulin (Sigma) Anti-rabbit horseradish peroxidase (1:5000, GE Healthcare) was used as secondary antibodies. Bands were visualized by ECL technique (Amersham Bioscience).
Cells were seeded on glass coverslips and treated by compounds (1 μM) overnight. After treatment, cells were fixed in 4% formaldhehyde at 37° C. for 15 minutes, then permeabilized for 5 minutes with Triton X-100 in PBS.

HeLa cells = assay: Cell viability / antiproliferative assay; assay type: cell-based; conditions: HeLa cells, average of three independent experiments, concentration that induced 50% death, read-out: IC50 (in nM), antiproliferative assay
From the text: Antiproliferative assays with HeLa cells have been performed with the preferred compounds and compared to the C1 and C2. The average of three independent experiments is shown. IC50 obtained with C1 and C2 were previously reported in Hoang et al, 2009, and are indicated for comparison. The lateral chain of each molecule is recalled, knowing that all the molecules have an oxo group at position 11. IC50 are indicated, i.e. the concentration that induced 50% death.
H358, H322 (lung cancer cells), U373 (glioblastomes) and HeLa ([…]) were grown in DMEM (1.5 g/L glucose) whereas HL60 (human myeloid cell line) cells were in RPMI 1640. U2OS (a human osteosarcoma cell line) cells were cultured in McCoy's Medium 5 A and liver cells (SK Hep 1) in DMEM (4 g/L glucose, (Gibco-Invitrogen). Media (Gibco-Invitrogen), were supplemented with 10% heat-inactivated foetal bovine serum (Gibco-Invitrogen), L-glutamine (2 mM), penicillin (100 UI/ml) and streptomycin (100 μg/ml).
Cell proliferation assays were conducted in 96 well culture plates. Assays were run in triplicate. Cell viability was estimated upon 72 h of treatment with varying concentrations of compound by addition of CellTiter 96Queous one Solution Reagent (Promega) directly to culture wells under conditions defined by the manufacturer.

NUAK1 [1] = target: T1, NUAK1 (Homo sapiens, UniProt O60285); assay: Nuak1 inhibition in cellulo: LATS1 stabilization by western blot; assay type: cell-based; conditions: HeLa cells treated ON; whole cell extracts, WB, compared to control
T1 construct: Reaction biology Corp (USA), service
T1 sequence (O60285 1-661): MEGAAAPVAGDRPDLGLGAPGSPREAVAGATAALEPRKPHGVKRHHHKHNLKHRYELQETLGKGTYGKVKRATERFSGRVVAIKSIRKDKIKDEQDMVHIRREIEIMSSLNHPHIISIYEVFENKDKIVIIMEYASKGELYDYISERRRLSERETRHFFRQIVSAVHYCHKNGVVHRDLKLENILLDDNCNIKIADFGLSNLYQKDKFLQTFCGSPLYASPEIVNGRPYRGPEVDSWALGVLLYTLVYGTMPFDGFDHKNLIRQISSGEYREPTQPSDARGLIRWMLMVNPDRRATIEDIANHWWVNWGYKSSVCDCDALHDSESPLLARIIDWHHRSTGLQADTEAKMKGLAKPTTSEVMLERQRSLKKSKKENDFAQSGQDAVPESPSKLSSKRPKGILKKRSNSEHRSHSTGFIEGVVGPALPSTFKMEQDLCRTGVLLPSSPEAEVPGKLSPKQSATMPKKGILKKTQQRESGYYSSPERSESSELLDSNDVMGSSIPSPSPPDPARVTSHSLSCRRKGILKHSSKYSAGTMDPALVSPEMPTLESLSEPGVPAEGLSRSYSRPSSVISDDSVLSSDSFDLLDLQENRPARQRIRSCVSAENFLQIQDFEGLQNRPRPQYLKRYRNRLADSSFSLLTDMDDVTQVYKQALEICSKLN
Method: HeLa cells were treated ON by C21 (also named CH21) and C14M and compared to the control (C0). Whole cell extracts were analyzed by WB with anti LATS1 monoclonal antibody and the loading was quantified through the tubulin signal.
Therefore the possibility of inhibiting Nuakl, in cellulo, was evaluated through the stabilization of the Large Antigen Tumour Suppressor LATS1.
as §1

NUAK1 [2] = target: T1, NUAK1; assay: In vitro IC50 on recombinant kinase; assay type: biochemical
Method: The efficiency of the 3-amino-ethoxy compounds to inhibit Nuak1 was determined in vitro.
The profiling was performed at the MRC (Dundee University), in duplicate, on a set of 121 kinases. The panel is representative of the major different classes of kinases. Compounds were used at the concentration of 1 μM. In vitro, IC50 were determined on recombinant kinases by Reaction biology Corp (USA).

Chain of Aurora B (Q96GD4 whole entry): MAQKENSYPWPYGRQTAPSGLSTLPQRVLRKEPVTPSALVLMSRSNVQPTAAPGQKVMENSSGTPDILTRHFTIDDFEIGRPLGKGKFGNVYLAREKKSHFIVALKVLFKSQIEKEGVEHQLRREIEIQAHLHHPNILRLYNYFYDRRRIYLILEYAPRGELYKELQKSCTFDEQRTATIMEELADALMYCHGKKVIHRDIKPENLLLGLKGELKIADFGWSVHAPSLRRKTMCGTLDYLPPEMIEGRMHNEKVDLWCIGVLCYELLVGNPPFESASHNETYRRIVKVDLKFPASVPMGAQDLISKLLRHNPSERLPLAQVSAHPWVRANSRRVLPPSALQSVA

Structure (SMILES)	Aurora B inhibition (Aurora B)	other results
CCc1c[nH]c(=O)c2c1[nH]c1ccc3cc(OCCN(C)C)ccc3c12 [Compound C48M, 3-(2-N,N-dimethylaminoethoxy)-8-ethyl-7H,11H-benzo[e]pyrido(4,3-b)indol-11-one]		Aurora B kinase inhibition of maleate salts (in words) (Aurora B): maintained; IC50 (HeLa cells): 63 ± 17 nM
Cc1c[nH]c(=O)c2c1[nH]c1ccc3cc(OCCN4CCOCC4)ccc3c12 [Compound C07M, 3-(2-(Morpholin-4-yl)ethoxy)-8-methyl-7H,10H-benzo[e]pyrido(4,3-b)indol-11-one]		Aurora B kinase inhibition of maleate salts (in words) (Aurora B): maintained; IC50 (HeLa cells): 287 ± 32 nM
Cc1c[nH]c(=O)c2c1[nH]c1ccc3cc(OCCN(C)C)ccc3c12 [Compound C14M, 3-(2-N,N-Dimethylaminoethoxy)-8-methyl-7H,10H-benzo[e]pyrido(4,3-b)indol-11-one]		Aurora B kinase inhibition of maleate salts (in words) (Aurora B): maintained; LATS1 protein level (in words) (NUAK1 [1]): large increase; IC50 (HeLa cells): 114 ± 82 nM
Cc1cncc2c1[nH]c1ccc3cc(OCCCN(C)C)ccc3c12 [Compound C23, 3-(3-N,N-dimethylaminopropoxy)-8-methyl-7H-benzo[e]pyrido(4,3-b)indole]	−	
Cc1c[nH]c(=O)c2c1[nH]c1ccc3cc(OCCN4CCCCC4)ccc3c12 [Compound C710, 3-(2-(Piperidin-1-yl)ethoxy)-8-methyl-7H,10H-benzo[e]pyrido(4,3-b)indol-11-one]	+++	
Cc1cnc(Cl)c2c1[nH]c1ccc3cc(OCCN4CCCCC4)ccc3c12 [Compound C709, 11-Chloro-3-(2-(piperidin-1-yl)ethoxy)-8-methyl-7H-benzo[e]pyrido(4,3-b)indole]	−	
COCCOc1ccc2c(ccc3[nH]c4c(C)cnc(Cl)c4c32)c1 [Compound C708, 11-Chloro-3-(2-methoxyethoxy)-8-methyl-7H-benzo[e]pyrido(4,3-b)indole]	−	
COc1ccc2c(c1)CCc1[nH]c3c(C)c[nH]c(=O)c3c1-2 [Compound C11, reference compound]	−	
Cc1cnc(Cl)c2c1[nH]c1ccc3cc(OCCN4CCOCC4)ccc3c12 [Compound C05, 11-Chloro-3-(2-(morpholin-4-yl)ethoxy)-8-methyl-7H-benzo[e]pyrido(4,3-b)indole]	−	
Cc1c[nH]c(=O)c2c1[nH]c1ccc3cc(OCCN4CCOCC4)ccc3c12 [Compound C07, 3-(2-(Morpholin-4-yl)ethoxy)-8-methyl-7H,10H-benzo[e]pyrido(4,3-b)indol-11-one]	+++	IC50 (NUAK1 [2]): 1.6 nM; IC50 (HeLa cells): 107 ± 12 nM

More lines, main results first:

Aurora B inhibition (Aurora B)	Structure (SMILES)	other results
−	COCCOc1ccc2c(ccc3[nH]c4c(C)c[nH]c(=O)c4c32)c1 [Compound C711, 3-(2-Methoxyethoxy)-8-methyl-7H,10H-benzo[e]pyrido(4,3-b)indol-11-one]	
−	CCc1cnc(Cl)c2c1[nH]c1ccc3cc(OCCN(C)C)ccc3c12 [Compound C40, 11-Chloro-3-(2-N,N-dimethylaminoethoxy)-8-ethyl-7H-benzo[e]pyrido(4,3-b)indole]	
+++	CCc1c[nH]c(=O)c2c1[nH]c1ccc3cc(OCCN(C)C)ccc3c12 [Compound C48, 3-(2-N,N-dimethylaminoethoxy)-8-ethyl-7H,11H-benzo[e]pyrido(4,3-b)indol-11-one]	IC50 (NUAK1 [2]): 5.7 nM; IC50 (HeLa cells; Homo sapiens, HeLa): 53 ± 3 nM
−	COc1ncc(C)c2[nH]c3ccc4cc(OCCN(C)C)ccc4c3c12 [Compound C12, 11-Methoxy-3-(2-N,N-dimethylaminoethoxy)-8-methyl-7H-benzo[e]pyrido(4,3-b)indole]	
